Reference: publication PMC5218480 (PLoS ONE, 2017)

System: MV-4-11 cells
Assay: Gene expression microarray analysis (Affymetrix PrimeView) and GSEA
Assay type: cell-based, human
Design: RFU PODN (11730768_x_at) / Fold change /veh PODN (11730768_x_at) / RFU LINC00158 (11744669_a_at) / Fold change /veh LINC00158 (11744669_a_at) / RFU DUSP10 (11751237_a_at) / Fold change /veh DUSP10 (11751237_a_at) / RFU ID3 (11757404_x_at) / Fold change /veh ID3 (11757404_x_at) / RFU PLEKHG5 (11737974_s_at) / Fold change /veh PLEKHG5 (11737974_s_at) / RFU LRRC4B (11730491_at) / Fold change /veh LRRC4B (11730491_at) / RFU GIMAP4 (11747438_a_at) / Fold change /veh GIMAP4 (11747438_a_at) / RFU KRT8 (11758183_x_at) / Fold change /veh KRT8 (11758183_x_at) / RFU CNN1 (11734310_a_at) / Fold change /veh CNN1 (11734310_a_at) / RFU VPS37D (11726825_at) / Fold change /veh VPS37D (11726825_at) / RFU C10orf10 (11716522_x_at) / Fold change /veh C10orf10 (11716522_x_at) / RFU KIR2DL2 /// KIR2DL4 /// KIR2DL5A /// KIR2DL5B /// KIR2DS1 /// KIR2DS2 /// KIR2DS3 /// KIR2DS4 /// KIR3DL3 /// KIR3DL3 /// KIR3DS1 (11738374_at) / Fold change /veh KIR2DL2 /// KIR2DL4 /// KIR2DL5A /// KIR2DL5B /// KIR2DS1 /// KIR2DS2 /// KIR2DS3 /// KIR2DS4 /// KIR3DL3 /// KIR3DL3 /// KIR3DS1 (11738374_at) / RFU C1QL1 (11718748_at) / Fold change /veh C1QL1 (11718748_at) / RFU TMPRSS4 (11747572_a_at) / Fold change /veh TMPRSS4 (11747572_a_at) / RFU HAMP (11756126_x_at) / Fold change /veh HAMP (11756126_x_at) / RFU RNFT2 (11725882_a_at) / Fold change /veh RNFT2 (11725882_a_at) / RFU NR4A2 (11747474_a_at) / Fold change /veh NR4A2 (11747474_a_at) / RFU ABCC12 (11746883_a_at) / Fold change /veh ABCC12 (11746883_a_at) / RFU TMEM136 (11760407_x_at) / Fold change /veh TMEM136 (11760407_x_at) / RFU CLDN22 /// WWC2 (11732394_at) / Fold change /veh CLDN22 /// WWC2 (11732394_at) / RFU HLA-DPB1 (11760878_x_at) / Fold change /veh HLA-DPB1 (11760878_x_at) / RFU SPINT1 (11716480_a_at) / Fold change /veh SPINT1 (11716480_a_at) / RFU GAP43 (11754022_s_at) / Fold change /veh GAP43 (11754022_s_at) / RFU A4GNT (11735810_at) / Fold change /veh A4GNT (11735810_at) / RFU PRB3 (11715151_x_at) / Fold change /veh PRB3 (11715151_x_at) / RFU TUBB4B (11761932_at) / Fold change /veh TUBB4B (11761932_at) / RFU CAPN14 (11732068_a_at) / Fold change /veh CAPN14 (11732068_a_at) / RFU TMCC2 (11721928_a_at) / Fold change /veh TMCC2 (11721928_a_at) / RFU IRGQ (11745062_a_at) / Fold change /veh IRGQ (11745062_a_at) / RFU FAM174B (11720279_a_at) / Fold change /veh FAM174B (11720279_a_at) / RFU TMPRSS4 (11748680_a_at) / Fold change /veh TMPRSS4 (11748680_a_at) / RFU FAM212B (11763350_a_at) / Fold change /veh FAM212B (11763350_a_at) / RFU PLEKHG5 (11743358_a_at) / Fold change /veh PLEKHG5 (11743358_a_at) / RFU ZSCAN30 (11745921_a_at) / Fold change /veh ZSCAN30 (11745921_a_at) / RFU CMKLR1 (11741424_a_at) / Fold change /veh CMKLR1 (11741424_a_at) / RFU LOC101060620 /// MAPK8IP1 (11723275_at) / Fold change /veh LOC101060620 /// MAPK8IP1 (11723275_at) / RFU SPTSSB (11747773_x_at) / Fold change /veh SPTSSB (11747773_x_at) / RFU PRSS12 (11739890_at) / Fold change /veh PRSS12 (11739890_at) / RFU BIN1 (11741810_x_at) / Fold change /veh BIN1 (11741810_x_at) / RFU WNT11 (11732464_a_at) / Fold change /veh WNT11 (11732464_a_at) / RFU C10orf10 (11716521_a_at) / Fold change /veh C10orf10 (11716521_a_at) / RFU C5orf56 (11738089_at) / Fold change /veh C5orf56 (11738089_at) / RFU CYB561 (11721691_x_at) / Fold change /veh CYB561 (11721691_x_at) / RFU ANKRD19P (11752326_a_at) / Fold change /veh ANKRD19P (11752326_a_at) / RFU OR2T12 /// OR2T33 /// OR2T8 (11738714_s_at) / Fold change /veh OR2T12 /// OR2T33 /// OR2T8 (11738714_s_at) / RFU VCAN (11748164_a_at) / Fold change /veh VCAN (11748164_a_at) / RFU JSRP1 (11732532_at) / Fold change /veh JSRP1 (11732532_at) / RFU KRTAP10-11 (11738290_x_at) / Fold change /veh KRTAP10-11 (11738290_x_at) / RFU MYO3A (11730013_a_at) / Fold change /veh MYO3A (11730013_a_at) / RFU EBF3 (11725865_a_at) / Fold change /veh EBF3 (11725865_a_at) / RFU CAMK2N1 (11719241_x_at) / Fold change /veh CAMK2N1 (11719241_x_at) / RFU C5orf56 (11738088_a_at) / Fold change /veh C5orf56 (11738088_a_at) / RFU OLFML3 (11715873_a_at) / Fold change /veh OLFML3 (11715873_a_at) / RFU LOC100653217 /// NTM (11731650_a_at) / Fold change /veh LOC100653217 /// NTM (11731650_a_at) / RFU MAPK11 (11762145_a_at) / Fold change /veh MAPK11 (11762145_a_at) / RFU FIZ1 (11724087_x_at) / Fold change /veh FIZ1 (11724087_x_at) / RFU OASL (11726364_x_at) / Fold change /veh OASL (11726364_x_at) / RFU SOX15 (11748057_x_at) / Fold change /veh SOX15 (11748057_x_at) / RFU CD79A (11719716_a_at) / Fold change /veh CD79A (11719716_a_at) / RFU HIST1H1D (11736915_at) / Fold change /veh HIST1H1D (11736915_at) / RFU CASKIN2 (11723855_a_at) / Fold change /veh CASKIN2 (11723855_a_at) / RFU LOC730098 (11760151_x_at) / Fold change /veh LOC730098 (11760151_x_at) / RFU OR4N2 (11742367_at) / Fold change /veh OR4N2 (11742367_at) / RFU PRRT2 (11749266_a_at) / Fold change /veh PRRT2 (11749266_a_at) / RFU SNX32 (11753110_a_at) / Fold change /veh SNX32 (11753110_a_at) / RFU CDHR5 (11726645_a_at) / Fold change /veh CDHR5 (11726645_a_at) / RFU RCAN1 (11760418_a_at) / Fold change /veh RCAN1 (11760418_a_at) / RFU FAM167A (11723789_a_at) / Fold change /veh FAM167A (11723789_a_at) / RFU FAM26E (11764081_at) / Fold change /veh FAM26E (11764081_at) / RFU ISYNA1 (11749810_s_at) / Fold change /veh ISYNA1 (11749810_s_at) / RFU ACY1 (11761880_at) / Fold change /veh ACY1 (11761880_at) / RFU 11764098_at / Fold change /veh 11764098_at / RFU SAMD14 (11745864_x_at) / Fold change /veh SAMD14 (11745864_x_at) / RFU NPB (11741838_a_at) / Fold change /veh NPB (11741838_a_at) / RFU TMPRSS6 (11731388_a_at) / Fold change /veh TMPRSS6 (11731388_a_at) / RFU KRTAP10-2 (11738614_at) / Fold change /veh KRTAP10-2 (11738614_at) / RFU ARHGAP8 /// PRR5-ARHGAP8 (11727945_x_at) / Fold change /veh ARHGAP8 /// PRR5-ARHGAP8 (11727945_x_at) / RFU KRTAP5-7 /// NADSYN1 (11734609_at) / Fold change /veh KRTAP5-7 /// NADSYN1 (11734609_at) / RFU RASL12 (11751679_a_at) / Fold change /veh RASL12 (11751679_a_at) / RFU CDKN2B (11736163_a_at) / Fold change /veh CDKN2B (11736163_a_at) / RFU PRF1 (11729649_at) / Fold change /veh PRF1 (11729649_at) / RFU, ZNF638 /// ZNF638-IT1 / Fold change vs veh, ZNF638 /// ZNF638-IT1 / RFU, PANK3 / Fold change vs veh, PANK3 / RFU, SH3YL1 / Fold change vs veh, SH3YL1 / RFU, ZEB2 / Fold change vs veh, ZEB2 / RFU, NRIP1 / Fold change vs veh, NRIP1 / RFU, PTTG1IP / Fold change vs veh, PTTG1IP / RFU, CAPN2 / Fold change vs veh, CAPN2 / RFU, MED14 / Fold change vs veh, MED14 / RFU, SNORA58 / Fold change vs veh, SNORA58 / RFU, C1orf63 / Fold change vs veh, C1orf63 / RFU, LRRFIP1 / Fold change vs veh, LRRFIP1 / RFU, NDUFAF7 / Fold change vs veh, NDUFAF7 / RFU, SLC12A2 / Fold change vs veh, SLC12A2 / RFU, IBTK / Fold change vs veh, IBTK / RFU, ESF1 / Fold change vs veh, ESF1 / Fold change vs veh, TMEM50B / RFU, TAOK1 / Fold change vs veh, TAOK1 / RFU, ACBD3 / Fold change vs veh, ACBD3 / RFU, TMA16 / Fold change vs veh, TMA16 / RFU, RWDD3 / Fold change vs veh, RWDD3 / RFU, BCAT1 / Fold change vs veh, BCAT1 / RFU, EDEM3 / Fold change vs veh, EDEM3 / RFU, TMEM33 / Fold change vs veh, TMEM33 / RFU, WDR75 / Fold change vs veh, WDR75 / RFU, AHCTF1 / Fold change vs veh, AHCTF1 / RFU, TFRC / Fold change vs veh, TFRC / RFU, ZDHHC17 / Fold change vs veh, ZDHHC17 / RFU, NOM1 / Fold change vs veh, NOM1 / RFU, ARL8B / Fold change vs veh, ARL8B / RFU, ZBTB11 / Fold change vs veh, ZBTB11 / RFU, TAMM41 / Fold change vs veh, TAMM41 / RFU, KIAA1704 /// LOC100996395 / Fold change vs veh, KIAA1704 /// LOC100996395 / RFU, ING1 / Fold change vs veh, ING1 / RFU, TRMT61B / Fold change vs veh, TRMT61B / RFU, FUBP3 / Fold change vs veh, FUBP3 / RFU, TP53 / Fold change vs veh, TP53 / RFU, TNKS2 / Fold change vs veh, TNKS2 / RFU, ZFP14 / Fold change vs veh, ZFP14 / RFU, ACTR2 / Fold change vs veh, ACTR2 / RFU, PPP3R1 / Fold change vs veh, PPP3R1 / RFU, PIK3R1 / Fold change vs veh, PIK3R1 / RFU, HNRNPA1 / Fold change vs veh, HNRNPA1 / RFU, RNF170 / Fold change vs veh, RNF170 / RFU, ZNF28 / Fold change vs veh, ZNF28 / RFU, RNGTT / Fold change vs veh, RNGTT / RFU, OGT / Fold change vs veh, OGT / RFU, BRD1 / Fold change vs veh, BRD1 / RFU, MARS / Fold change vs veh, MARS / RFU, ZNF655 / Fold change vs veh, ZNF655 / RFU, FAHD1 / Fold change vs veh, FAHD1 / RFU, BDP1 / Fold change vs veh, BDP1 / RFU, LRRCC1 / Fold change vs veh, LRRCC1 / RFU, ARID1A / Fold change vs veh, ARID1A / RFU, ZNF146 / Fold change vs veh, ZNF146 / RFU, ZNF330 / Fold change vs veh, ZNF330 / RFU, GPN3 / Fold change vs veh, GPN3 / RFU, C9orf123 / Fold change vs veh, C9orf123 / RFU, N4BP2L2 / Fold change vs veh, N4BP2L2 / RFU, ARFIP1 / Fold change vs veh, ARFIP1 / RFU, FAM179B / Fold change vs veh, FAM179B / RFU, BCL10 / Fold change vs veh, BCL10 / RFU, UHRF1BP1L / Fold change vs veh, UHRF1BP1L / RFU, BET1 / Fold change vs veh, BET1 / RFU, CNOT2 / Fold change vs veh, CNOT2 / RFU, ZNF268 / Fold change vs veh, ZNF268 / Fold change vs veh, ZNF507 / RFU, DGCR2 / Fold change vs veh, DGCR2 / RFU, WDSUB1 / Fold change vs veh, WDSUB1 / Fold change vs veh, HSP90B1 /// MIR3652 / RFU, ADSS / Fold change vs veh, ADSS / RFU, GK / Fold change vs veh, GK / RFU, ZNF148 / Fold change vs veh, ZNF148 / RFU, TAF9 / Fold change vs veh, TAF9 / RFU, SLC1A5 / Fold change vs veh, SLC1A5 / RFU, SLMO2 / Fold change vs veh, SLMO2 / RFU, ABCC4 / Fold change vs veh, ABCC4 / RFU, LOC101060439 /// RAP1B / Fold change vs veh, LOC101060439 /// RAP1B / RFU, RFX7 / Fold change vs veh, RFX7 / RFU, GTPBP10 / Fold change vs veh, GTPBP10 / RFU, CNEP1R1 / Fold change vs veh, CNEP1R1 / RFU, BIVM-ERCC5 /// ERCC5 / Fold change vs veh, BIVM-ERCC5 /// ERCC5 / RFU, ILF3 / Fold change vs veh, ILF3 / RFU 11762660_at / Fold change /veh 11762660_at / RFU VCAN (11757783_s_at) / Fold change /veh VCAN (11757783_s_at) / RFU DDX43 (11728927_at) / Fold change /veh DDX43 (11728927_at) / RFU KRT8 (11758188_x_at) / Fold change /veh KRT8 (11758188_x_at) / RFU NKD1 (11759106_at) / Fold change /veh NKD1 (11759106_at) / RFU SRD5A1 (11742802_a_at) / Fold change /veh SRD5A1 (11742802_a_at) / RFU TPSAB1 /// TPSB2 (11721975_s_at) / Fold change /veh TPSAB1 /// TPSB2 (11721975_s_at) / RFU GSTM3 (11746129_a_at) / Fold change /veh GSTM3 (11746129_a_at) / RFU IL23R (11737362_x_at) / Fold change /veh IL23R (11737362_x_at) / RFU TMEM51 (11727254_a_at) / Fold change /veh TMEM51 (11727254_a_at) / RFU PIWIL2 (11732686_x_at) / Fold change /veh PIWIL2 (11732686_x_at) / RFU ORM1 (11744905_x_at) / Fold change /veh ORM1 (11744905_x_at) / RFU CCDC152 (11743942_at) / Fold change /veh CCDC152 (11743942_at) / RFU ECM1 (11717891_a_at) / Fold change /veh ECM1 (11717891_a_at) / RFU IL23R (11748794_a_at) / Fold change /veh IL23R (11748794_a_at) / RFU TNFAIP8L3 (11732012_x_at) / Fold change /veh TNFAIP8L3 (11732012_x_at) / RFU MBOAT4 (11741988_at) / Fold change /veh MBOAT4 (11741988_at) / RFU 11764193_at / Fold change /veh 11764193_at / RFU TMEM53 (11763286_at) / Fold change /veh TMEM53 (11763286_at) / RFU MAGEB2 (11727129_at) / Fold change /veh MAGEB2 (11727129_at) / RFU TMEM200A (11744735_a_at) / Fold change /veh TMEM200A (11744735_a_at) / RFU CCDC152 (11751479_a_at) / Fold change /veh CCDC152 (11751479_a_at) / RFU FAM211A (11726209_a_at) / Fold change /veh FAM211A (11726209_a_at) / RFU RGS16 (11746705_a_at) / Fold change /veh RGS16 (11746705_a_at) / RFU VCAN (11755009_s_at) / Fold change /veh VCAN (11755009_s_at) / RFU RHOB (11743442_s_at) / Fold change /veh RHOB (11743442_s_at) / RFU RGS16 (11720943_a_at) / Fold change /veh RGS16 (11720943_a_at) / RFU RGS16 (11720944_at) / Fold change /veh RGS16 (11720944_at) / RFU, VPS4B / Fold change vs veh, VPS4B / RFU, CREB1 / Fold change vs veh, CREB1 / RFU, DNAJC13 / Fold change vs veh, DNAJC13 / RFU, GNAQ / Fold change vs veh, GNAQ / RFU, CDK5R1 / Fold change vs veh, CDK5R1 / RFU, ZRANB3 / Fold change vs veh, ZRANB3 / RFU, CUL4A / Fold change vs veh, CUL4A / RFU, CCNY / Fold change vs veh, CCNY / RFU, UFL1 / Fold change vs veh, UFL1 / RFU, COG3 / Fold change vs veh, COG3 / RFU, DIAPH2 / Fold change vs veh, DIAPH2 / RFU, SKA2 / Fold change vs veh, SKA2 / RFU, AFF3 / Fold change vs veh, AFF3 / RFU, LMF1 / Fold change vs veh, LMF1 / RFU, IPO11 / Fold change vs veh, IPO11 / RFU, DFFB / Fold change vs veh, DFFB / RFU, FOXP1 / Fold change vs veh, FOXP1 / RFU, CARD8 / Fold change vs veh, CARD8 / RFU, STRN3 / Fold change vs veh, STRN3 / RFU, ADK / Fold change vs veh, ADK / RFU, RASSF2 / Fold change vs veh, RASSF2 / RFU, WIPF1 / Fold change vs veh, WIPF1 / RFU, LARP1B / Fold change vs veh, LARP1B / RFU, RASA1 / Fold change vs veh, RASA1 / RFU, RB1 / Fold change vs veh, RB1 / RFU, PPFIA1 / Fold change vs veh, PPFIA1 / RFU, MAT2A / Fold change vs veh, MAT2A / RFU, CCT5 / Fold change vs veh, CCT5 / RFU, WDR92 / Fold change vs veh, WDR92 / RFU, CUX1 / Fold change vs veh, CUX1 / RFU, TTC7A / Fold change vs veh, TTC7A / RFU, TMEM135 / Fold change vs veh, TMEM135 / RFU, DEPTOR / Fold change vs veh, DEPTOR / RFU, CPM / Fold change vs veh, CPM / RFU, DNAJB6 / Fold change vs veh, DNAJB6 / RFU, CACNA2D3 / Fold change vs veh, CACNA2D3 / RFU, DTX4 / Fold change vs veh, DTX4 / RFU, TFCP2 / Fold change vs veh, TFCP2 / RFU, GMCL1 /// GMCL1P1 / Fold change vs veh, GMCL1 /// GMCL1P1 / RFU, AEBP2 / Fold change vs veh, AEBP2 / RFU, SNHG1 /// SNORD22 /// SNORD25 /// SNORD26 /// SNORD27 /// SNORD28 /// SNORD29 /// SNORD31 / Fold change vs veh, SNHG1 /// SNORD22 /// SNORD25 /// SNORD26 /// SNORD27 /// SNORD28 /// SNORD29 /// SNORD31 / Fold change (Aza/veh), C12orf56 (ProbeSet 11735607_a_at) / Fold change (ACY-1035/veh), C12orf56 (ProbeSet 11735607_a_at) / Fold change (Aza/veh), FGFR1OP (ProbeSet 11751329_s_at) / Fold change (ACY-1035/veh), FGFR1OP (ProbeSet 11751329_s_at) / Fold change (Aza/veh), VPS36 (ProbeSet 11739960_a_at) / Fold change (ACY-1035/veh), VPS36 (ProbeSet 11739960_a_at) / RFU SYPL1 (11715823_x_at) / Fold change /veh SYPL1 (11715823_x_at) / RFU IGFBP7 (11715501_s_at) / Fold change /veh IGFBP7 (11715501_s_at) / RFU REEP3 (11722064_at) / Fold change /veh REEP3 (11722064_at) / RFU IGLL1 (11728026_x_at) / Fold change /veh IGLL1 (11728026_x_at): dose or concentration left out as unconfirmed
Settings: ProbeSet 11732281_s_at; LIST D

SMILES: Nc1ccc(-c2cccs2)cc1NC(=O)c1ccc2c(c1)cc(C1CC1)n2CCN1CCOCC1 [ACY-1035]
- Fold change vs veh, FOXP1: 0.88
